This passage reports TGI and GI50 results from PubChem BioAssay (NCI).

Holding throughout (test): NCI tumour cell line growth inhibition, 48 h
Test [1] concerns 786-0 renal.
Test [2] concerns M14 melanoma.
The subject of test [3] is MCF7 breast.
Test [4] has as its system SR leukemia.
Test [5] has as its system SK-OV-3 ovarian.
For test [6], the system named is COLO 205 colon.
Test [7] concerns SW-620 colon.
Test [8] has as its system MDA-MB-435.
For test [9], the system named is SNB-19 CNS.
Test [10] concerns U251 CNS.

Values joined by “and” are separate entries in the source; they are usually repeats but may differ in a detail not shown here. Equal values may be shown once.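 Compound exposure: 48 hours, 5 concentrations, 96-well plates. GI50 is the concentration that inhibits growth by half. TGI denotes the concentration required for complete inhibition of growth.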

On to `S=c1nc(-c2nc(=S)[nH]c3c2CCCCCCCCCC3)c2c([nH]1)CCCCCCCCCC2`, for which the TGI in test [1], in [2], in [3], in test [4], in test [5] and in test [6] was > 100 µM in each case. In addition, the TGI in test [7], in test [8], in [9] and in test [10] was > 100 µM each time.
As to `Nc1ccc(-c2nc3ccc4[nH]ncc4c3c3c2CCCC3)cc1F`, the GI50 in [1] is 1.6 µM; in [2], 0.686 µM; in [3] it was 1.09 µM; in test [4], 1.12 µM; in test [5], 0.367 µM; in [6], 1.42 µM. For the same compound, the GI50 in [7] is 0.907 µM; in [8] it was 1.38 µM; in [9], 2.48 µM; in [10], 1.29 µM. The TGI in test [1] turned out to be 10.3 µM; in [2] it was 6.92 µM; in test [3] it was 8.92 µM; in [4], 9.1 µM; in test [5] it was 2.77 µM; in [6] it was 6.77 µM. The TGI in test [7] is 7.52 µM; in [8] it was 5.61 µM; in test [9], 32.1 µM; in test [10] it was 8.95 µM.
Regarding `COc1ccc(C(=O)c2cc(OC)c(OC)c(OC)c2)cc1OC(C)=O`, the GI50 in test [1] was 0.672 µM; in test [2], < 0.0143 µM; in test [3], 0.0346 µM; in test [4], < 0.01 µM; in test [5], 0.0817 µM; in [6], 0.786 µM. In addition, the GI50 is < 0.0184 µM in [7], < 0.01 µM in [8], 0.0381 µM in test [9] and 0.0392 µM in test [10]. Further, the TGI was > 100 µM in [1]; > 100 µM in test [2]; > 100 µM in test [3]; > 75.2 µM in test [4]; > 100 µM in test [5]; 10.1 µM in test [6]. Further, the TGI in test [7] is > 100 µM; in [8] it was 0.0102 µM; in test [9], > 100 µM; in test [10], > 100 µM.
For the compound `C/C1=C\[C@H](C)C[C@H](C)OC(=O)C[C@H](c2ccc(O)cc2)NC(=O)[C@@H](Cc2c(Br)[nH]c3ccccc23)N(C)C(=O)[C@H](C)NC(=O)[C@@H](C)C1`, the GI50 in [1] was 0.0275 µM; in [2], 0.0456 µM; in [3], 0.208 µM; in test [4], 0.587 µM; in [5], 0.0267 µM; in test [6] it was < 0.0132 µM. In addition, the GI50 in [7] is 0.0347 µM; in test [8] it was 0.0445 µM; in [9], 0.0232 µM; in [10], 0.0328 µM. Besides, the TGI in test [1] was 0.384 µM and 0.255 µM; in test [3], > 100 µM; in test [4], 4.21 µM; in test [5], 0.579 µM and 0.0749 µM; in [6] it was 0.887 µM; in test [7], > 100 µM. The TGI is 17.7 µM in test [8]; 0.0568 µM in [9]; 0.859 µM and 0.74 µM in [10].
`C#CCN1C(=O)/C(=c2\sc3n(c2=O)C2C(NN=3)N(CC)C(=O)N2CC)c2ccccc21` (stereo not given): the GI50 in test [1] was 0.669 µM; in test [2], 0.283 µM; in [3] it was 0.377 µM; in test [4], 0.344 µM; in [5], 3.11 µM; in test [6] it was 0.987 µM. For the same compound, the GI50 in test [7] was 0.422 µM; in test [8], 0.214 µM; in test [9], 0.811 µM; in test [10] it was 0.648 µM. The TGI was 22.5 µM in test [1]; > 100 µM in test [3]; > 100 µM in test [4]; > 100 µM in test [5]; > 100 µM in [6]; > 100 µM in [7]. The TGI is 0.507 µM in [8], > 100 µM in [9] and > 47 µM in test [10].
As to `COc1ccc(-c2oc(=O)ccc2C#Cc2cc(OC)c(OC)c(OC)c2)cc1O`, the GI50 was 24.8 µM in test [1]; 26.9 µM in test [2]; 15.9 µM in test [3]; 2.75 µM in [4]; 30.7 µM in test [5]; 89.5 µM in test [6]. The GI50 in [7] is 31.1 µM; in test [8], 11.5 µM; in [9], 31.4 µM; in [10] it was 13.5 µM. Besides, the TGI was > 100 µM in test [1]; > 100 µM in [2]; 51.7 µM in test [3]; 33.5 µM in [4]; > 100 µM in [5]; > 100 µM in [6]. Besides, the TGI was > 100 µM in test [7], 81.7 µM in test [8], > 100 µM in test [9] and 50.6 µM in test [10].
`O=C1NC(=O)/C(=C/C=C/c2ccccc2)S1`: the GI50 in [1] is 0.366 µM; in test [2] it was 2.1 µM; in test [3], 1.36 µM; in [4] it was 0.597 µM; in test [5] it was 38.7 µM; in test [6], 14.4 µM. In addition, the GI50 in [7] is 11.2 µM; in [8], 5.46 µM; in test [9], 1.42 µM; in test [10], 0.693 µM. Further, the TGI was 4.27 µM in [1]; > 20.6 µM in test [2]; > 100 µM in [3]; > 86.5 µM in test [4]; > 100 µM in test [5]; > 48.3 µM in test [6]. For the same compound, the TGI in test [7] was > 59.1 µM; in [8], > 78.7 µM; in [9], 20.3 µM; in test [10], 18.1 µM.
For `Cn1nc(C(F)(F)F)c(-c2ccc(Cl)c(C(F)(F)F)c2)c1-c1ccc(OCc2ccc(Cl)cc2)cc1O`, the GI50 in [1] is 1.8 µM; in [2], 1.81 µM; in test [3], 1.52 µM; in test [4], 2.06 µM; in test [5], 1.42 µM; in test [6], 1.41 µM. Also, the GI50 in [7] was 1.84 µM; in test [8], 1.63 µM; in [9] it was 2.03 µM; in test [10], 1.66 µM. Also, the TGI was found to be 7.12 µM in [1]; 6.85 µM in test [2]; 6.01 µM in test [3]; 7.34 µM in test [4]; 4.32 µM in [5]; 4.45 µM in test [6]. Moreover, the TGI in [7] came out at 7.28 µM; in test [8], 6.27 µM; in [9] it was 8.17 µM; in [10], 5.62 µM.
In the case of `C=C1CCC2C3(C)COC(c4ccc(NC(C)=O)cc4)OC3CCC2(C)C1C/C=C1/C(=O)OCC1O` (stereo not given), the GI50 in [1] is > 100 µM; in test [2], > 100 µM; in test [3], 4.58 µM; in [4], 2.33 µM; in test [5], > 100 µM; in test [6] it was 4.22 µM. For the same compound, the GI50 is 64.3 µM in [7], 8.8 µM in [8], > 100 µM in test [9] and 79 µM in [10]. The TGI in [1] was > 100 µM; in [2], > 100 µM; in [3], > 100 µM; in test [4] it was 85.1 µM; in test [5], > 100 µM; in [6] it was > 100 µM. In addition, the TGI in test [7], in test [8], in [9] and in test [10] was > 100 µM in each case.
Regarding `CN(C)CCCNc1nn2c(=O)c3ccccc3nc2c2ccccc12`, the GI50 is 10.9 µM in test [1]; 11.8 µM in test [2]; 3.43 µM in [3]; 2.55 µM in [4]; 5.43 µM in [5]; 2.39 µM in test [6]. In addition, the GI50 in [7] was 4.94 µM; in [8], 6.24 µM; in [9], 13.2 µM; in test [10] it was 10.8 µM. Moreover, the TGI worked out at 23.7 µM in test [1]; 24.5 µM in test [2]; 15.6 µM in test [3]; 8.74 µM in test [4]; 22.8 µM in test [5]; 13 µM in test [6]. Also, the TGI in test [7] worked out at 19 µM; in test [8] it was 22.5 µM; in test [9], 43.9 µM; in test [10], 26.5 µM.
Regarding `CC(=O)Oc1ccc(OC(C)=O)c2ccccc12`, the GI50 in test [1] was 16.6 µM; in test [2], 16.1 µM; in test [3] it was 7.98 µM; in [4], 3.19 µM; in test [5], 14.1 µM; in test [6] it was 15 µM. In addition, the GI50 in test [7] was 13.8 µM; in test [8], 3.86 µM; in test [9], 30.5 µM; in [10] it was 13.8 µM. Besides, the TGI in test [1] worked out at 30.5 µM; in [2] it was 30.4 µM; in [3], 27.6 µM; in [4] it was 11.7 µM; in test [5] it was 27.1 µM; in [6] it was 28.2 µM. For the same compound, the TGI was 33.2 µM in test [7], 15 µM in test [8], > 100 µM in test [9] and 27.2 µM in [10].
Consider `CN(C)c1ccc(/C=C2\C[C@H]3[C@@H]4CC=C5C[C@@H](N6CCCC6)CC[C@]5(C)[C@H]4CC[C@]3(C)[C@H]2O)cc1`, for which the GI50 in test [1] is 1.84 µM; in test [2] it was 1.8 µM; in [4] it was 3.04 µM; in test [5], 14.7 µM; in test [9] it was 2.41 µM; in test [10], 1.78 µM. Further, the TGI in [1] was 1.29 µM and 3.73 µM; in test [2], 1.45 µM and 3.63 µM; in test [3], 12.5 µM; in [5], 13 µM and > 100 µM; in [6] it was 4.12 µM; in test [7], 3.69 µM. The TGI in test [8] is 5.37 µM; in [9] it was 6.94 µM and 9.08 µM; in test [10], 1.92 µM and 3.31 µM.
For the compound `CC(=O)OCC1OC(OC2C(COC(C)=O)OC(OCCC[S-])C(OC(C)=O)C2OC(C)=O)C(OC(C)=O)C(OC(C)=O)C1OC(C)=O.[Au+].c1ccc(CN2[CH-]N(Cc3ccccc3)C(c3ccccc3)=C2c2ccccc2)cc1` (stereo not given), the GI50 in test [1] is 2.8 µM; in test [2], 3.26 µM; in test [3], 2.44 µM; in test [4], 2.61 µM; in [5], 3.06 µM; in [6] it was 2.68 µM. The GI50 is 3.68 µM in test [7], 3.18 µM in [8], 3.66 µM in test [9] and 2.77 µM in test [10]. Further, the TGI in [1] worked out at 8.56 µM; in test [2], 14.5 µM; in test [3], 9.58 µM; in test [4] it was 20.6 µM; in [5], 12.6 µM; in test [6] it was 7.61 µM. The TGI was 13.8 µM in test [7], 13.6 µM in test [8], 15.2 µM in test [9] and 7.47 µM in test [10].
As for `O=P(Oc1ccc(Cl)cc1)(Oc1ccc(Cl)cc1)N1CC1`, the TGI in [1], in test [2], in [3], in test [4], in test [5] and in [6] was > 10 µM each time. Besides, the TGI in test [7], in test [8], in test [9] and in [10] was > 10 µM throughout.
As for `Cc1ccc(C(=O)N(C(C)C)C(C)C)cc1N=NN(C)C`, the TGI in test [1], in test [2], in test [3], in [4], in [5] and in test [6] was > 100 µM each time. Besides, the TGI in [7], in [8], in test [9] and in [10] was > 100 µM each time.
As for `C/C(=N\NC(N)=O)C(CN1CCCCC1)C(c1ccccc1)c1c(O)c2ccccc2oc1=O` (stereo not given), the TGI was > 59.5 µM in test [1]; > 100 µM in test [2]; > 100 µM in test [3]; > 100 µM in test [4]; > 100 µM in test [5]; > 100 µM in [6]. In addition, the TGI in [7], in test [8], in test [9] and in test [10] was > 100 µM each time. Further, the GI50 in test [3] and in test [8] was > 100 µM in each case.
